Source: patent publication US20250339360A1, “COSMETIC COMPOSITIONS COMPRISING RETINOIDS AND MOISTURIZERS AND METHODS FOR STABLIZING RETINOIDS” (ELC Management LLC, priority 2024, published 2025)

Experiment: Retinoid storage stability in stability chamber, hydroxypinacolone retinoate analysed by UPLC/UV-VIS at 360 nm
Type: physicochemical
Details: 6-month testing period, 25° C. and 40° C., within measurement accuracy
Experimental: The above samples were tested under two sets of temperature conditions. Each sample was placed in a stability chamber maintained at either room temperature (25° C.±2° C.) or accelerated (elevated) temperature (40° C.±2° C.). Each stability chamber was maintained at a relative humidity of 60%+5%. Stability of the retinoid was monitored at various time points: initially, after one month, after two months, after three months, and after six months. Assessment of the retinoid stability was conducted by removing a sample from the stability chamber and analyzing for hydroxypinacolone retinoate by UPLC/UV-VIS (Waters ACQUITY UPLC H-Class PLUS System with a photodiode array (PDA) detector). A wavelength of 360 nm was used for analyses. The measured concentrations were determined with a measurement accuracy of about +10%. The initial and subsequent concentrations are believed to deviate from the expected 0.1 wt % due to some initial degradation of the stock hydroxypinacolone retinoate.

Hydroxypinacolone retinoate concentration over the testing period: remained essentially constant
Structure (SMILES): CC1=C(/C=C/C(C)=C/C=C/C(C)=C/C(=O)OCC(=O)C(C)(C)C)C(C)(C)CCC1 [hydroxypinacolone retinoate]
